Tested on: UBE2L3-KRAS fusion protein
Test: Western blotting of UBE2L3-KRAS fusion protein in cells treated with bortezomib
Format: cell-based, human
Description: The prostate cancer cell lines DU145 were transfected with siRNA duplex (Dharmacon, Lafayette, Colo., USA) against UBE2L3 (5′-CCACCGAAGATCACATTTA-3′; SEQ ID NO:1), KRAS (5′-GAAGTTATGGAATTCCTTT-3′; SEQ ID NO:2) or the fusion junction (5′-CCGACCAAGGCCTGCTGAA-3′; SEQ ID NO:3) by oligofectamine (Invitrogen). DU145 transfected with non-targeting siRNA and RWPE cells was used as negative control. Post 48 hours transfection, cells were homogenized in NP40 lysis buffer (50 mM Tris-HCl, 1% NP40, pH 7.4, Sigma, St. Louis, Mo.), and complete proteinase inhibitor mixture (Roche, Indianapolis, Ind.). Ten micrograms of each protein extract were boiled in sample buffer, separated by SDS-PAGE, and transferred onto Polyvinylidene Difluoride membrane (GE Healthcare, Piscataway, N.J.). The membrane was incubated for one hour in blocking buffer [Tris-buffered saline, 0.1% Tween (TBS-T), 5% nonfat dry milk] and incubated overnight at 4° C. with the following antibodies: anti-RAS mouse monoclonal (1:1000 in blocking buffer, Millipore Cat #: 05-516), anti-KRAS rabbit polyclonal (1:1000, Proteintech Group Inc., Cat #: 12063-1-AP) and anti-beta Actin mouse monoclonal (1:5000, Sigma Cat #: A5441) antibodies. Following three washes with TBS-T, the blot was incubated with horseradish peroxidase-conjugated secondary antibody and the signals visualized by enhanced chemiluminescence system as described by the manufacturer (GE Healthcare). To test fusion protein expression in multiple prostate derived cell lines, lysates from DU145, PrEC, RWPE, 22RV1, VCaP, PC3 either untreated or treated with 500 nM bortezomib for 12 hours were used. Bortezomib treated HEK cells over-expressing UBE2L3-KRAS fusion protein was used as a positive control. […] For ERK activation analysis NIH 3T3 cells were starved for 12 hours before immunoblot analysis using phospho erk1/2 antibody. All antibodies for the MAPK signaling proteins were purchased from Cell Signaling Technologies.

Question: Which “levels of UBE2L3-KRAS protein expression (Western blot)” value (DU145 cells, 500 nM bortezomib for 12 hours) does the source give for CC(C)C[C@H](NC(=O)[C@H](Cc1ccccc1)NC(=O)c1cnccn1)B(O)O [bortezomib] here?
Answer: Its value is “enhanced the levels of UBE2L3-KRAS protein expression”.

Question: What about the “expression of the UBE2L3-KRAS fusion protein (Western blot)” value (HEK293 cells over-expressing UBE2L3-KRAS construct, 500 nM bortezomib for 12 hours) of the same molecule?
Answer: Its value is “expression of the fusion protein was clearly apparent”.

Question: What about the “expression of the UBE2L3-KRAS fusion protein (Western blot)” value (RWPE prostate epithelial cells overexpressing UBE2L3-KRAS) of the same molecule?
Answer: Its value is “proteosomal inhibition with bortezomib was required”.

— patent US20140364331A1, “RECURRENT GENE FUSIONS IN PROSTATE CANCER” (THE REGENTS OF THE UNIVERSITY OF MICHIGAN, priority 2009, published 2014)
